Laboratory results as given in US20180305345A1 (priority 2015, published 2018).

Experiments:
VSVΔ51 in 786-0 cells = type: cell-based, human
[1] = test system: VSVΔ51-resistant HT29 cells (human colon carcinoma); design: species or system Balb/c mice; details: in vivo

`O=C1OC(c2ccccc2)C(Cl)=C1Cl` (stereo not shown) [Compound 1, 3,4-dichloro-5-phenyl-2,5-dihydrofuran-2-one, reference compound] was tested, and the “effect on viral growth after removal of compound at various times” value (VSVΔ51 in 786-0 cells) was “rapid and sustained”.

`O=C1C(Cl)=C(Cl)C(O)N1CCN1CCOCC1` (stereo not shown) [Compound 28, 3,4-dichloro-5-hydroxy-1-(2-morpholinoethyl)-1H-pyrrol-2(5H)-one] was tested, and the mouse survival [1] was “increased mouse survival rates” and the tumor growth ([1]; mouse) was “reduced tumor growth”.

`O=C1C(Cl)=C(Cl)C(O)N1Cc1ccccc1` (stereo not drawn) [Compound 10, α,β-dichloro-γ-hydroxy-N-benzyl-crotonic lactam] was tested, and the “effect on viral growth after removal of compound at various times” value (VSVΔ51 in 786-0 cells) was “rapid and sustained”.
